Earlier results, collected in paper PMC6167001 (ACS Omega, 2018).

Columns and labels:
[1] = test system: HIV-1 mutants bearing L76V; settings: inclusion of L76V in mutants bearing three other resistance mutations
[2] = molecular target: PRL76V (HIV-1 protease with mutation L76V)

Cc1cccc(C)c1OCC(=O)N[C@@H](Cc1ccccc1)[C@@H](O)C[C@H](Cc1ccccc1)NC(=O)[C@H](C(C)C)N1CCCNC1=O [Compound 2, lopinavir]
increase in resistance associated with L76V [1]: eightfold

CC(C)(C)NC(=O)[C@@H]1C[C@@H]2CCCC[C@@H]2CN1C[C@@H](O)[C@H](Cc1ccccc1)NC(=O)[C@H](CC(N)=O)NC(=O)c1ccc2ccccc2n1 [Compound 6, saquinavir]
increase in susceptibility associated with L76V [1]: eightfold

COc1ccc(S(=O)(=O)N(C[C@H]2CCC(=O)N2)C[C@@H](O)[C@H](Cc2ccccc2)NC(=O)O[C@@H]2C[C@@H]3CCO[C@@H]3C2)cc1 [GRL-02031]
increase in inhibition constant (Ki) for PRL76V in comparison to PRWT [2]: twofold
